Laboratory results as given in PubChem BioAssay AID330 (DTP/NCI, 2004).
Values joined by “and” are separate entries in the source; they are usually repeats but may differ in a detail not shown here. Equal values may be shown once. Inconclusive results and toxic doses are left out. The calls were made as follows: active = survival T/C of 150% or more; inactive = T/C below 125% in these data.

Tested on: P388 leukemia ip, CD2F1 mice, survival T/C
Assay: NCI In Vivo Anticancer Drug Screen. Data for tumor model P388 Leukemia (intraperitoneal) in CD2F1 (CDF1) mice
Details: endpoint: median survival time, higher = longer survival
Procedure, shortened: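 Mice carrying the transplanted tumor received test compound or vehicle. Survival was recorded in each group, and the value is the treated-group measurement divided by that of the vehicle-treated control group.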

[1] = dose: 50.0 mg/kg/injection, schedule: Q01DX009 (ip), vehicle: Klucel (hydroxypropylcellulose) (HPC)
[2] = dose: 100.0 mg/kg/injection, schedule: Q01DX009 (ip), vehicle: Klucel (hydroxypropylcellulose) (HPC)
[3] = dose: 100.0 mg/kg/injection, schedule: Q04DX003 (ip), vehicle: saline with Tween-80
[4] = dose: 50.0 mg/kg/injection, schedule: Q01DX005 (ip), vehicle: saline with Tween-80
[5] = dose: 100.0 mg/kg/injection, schedule: Q01DX005 (ip), vehicle: saline with Tween-80
[6] = dose: 12.5 mg/kg/injection, schedule: Q01DX009 (ip), vehicle: saline
[7] = dose: 60.0 mg/kg/injection, schedule: Q01DX005 (ip), vehicle: saline with Tween-80
[8] = dose: 120.0 mg/kg/injection, schedule: Q01DX005 (ip), vehicle: saline with Tween-80
[9] = dose: 240.0 mg/kg/injection, schedule: Q01DX005 (ip), vehicle: saline with Tween-80
[10] = dose: 100.0 mg/kg/injection, schedule: Q01DX001 (ip), vehicle: saline with Tween-80
[11] = dose: 200.0 mg/kg/injection, schedule: Q01DX001 (ip), vehicle: saline with Tween-80
[12] = dose: 400.0 mg/kg/injection, schedule: Q01DX001 (ip), vehicle: saline with Tween-80
[13] = dose: 200.0 mg/kg/injection, schedule: Q01DX005 (ip), vehicle: saline with Tween-80
[14] = dose: 50.0 mg/kg/injection, schedule: Q01DX005 (ip), vehicle: Klucel (hydroxypropylcellulose) (HPC)
[15] = dose: 100.0 mg/kg/injection, schedule: Q01DX005 (ip), vehicle: Klucel (hydroxypropylcellulose) (HPC)
[16] = dose: 200.0 mg/kg/injection, schedule: Q01DX005 (ip), vehicle: Klucel (hydroxypropylcellulose) (HPC)
[17] = dose: 100.0 mg/kg/injection, schedule: Q04DX003 (ip), vehicle: saline
[18] = dose: 50.0 mg/kg/injection, schedule: Q01DX005 (ip), vehicle: saline
[19] = dose: 100.0 mg/kg/injection, schedule: Q01DX005 (ip), vehicle: saline
[20] = dose: 200.0 mg/kg/injection, schedule: Q01DX005 (ip), vehicle: saline
[21] = dose: 12.5 mg/kg/injection, schedule: Q01DX009 (ip), vehicle: saline with Tween-80

Measured: T/C

CC1CC2C(=S)NC(=O)C(c3ccccc3)=C2O1 (centres undefined)
inactive: [1] 107 % of control | [2] 103 % of control | dose: 200.0 mg/kg/injection, schedule: Q01DX009 (ip), vehicle: Klucel (hydroxypropylcellulose) (HPC) 100 % of control

CCCC1(N2CCCC2)C(=O)NC(=O)N(CC)C1=O (centres undefined)
inactive: dose: 60.0 mg/kg/injection, schedule: Q01DX005 (ip), vehicle: Klucel (hydroxypropylcellulose) (HPC) 108 % of control | dose: 120.0 mg/kg/injection, schedule: Q01DX005 (ip), vehicle: Klucel (hydroxypropylcellulose) (HPC) 93 % of control | dose: 240.0 mg/kg/injection, schedule: Q01DX005 (ip), vehicle: Klucel (hydroxypropylcellulose) (HPC) 101 % of control

O=C(O)c1ccc2nc(-c3ccccc3)cn2c1
inactive: dose: 12.5 mg/kg/injection, schedule: Q04DX003 (ip), vehicle: saline with Tween-80 98 % of control | dose: 25.0 mg/kg/injection, schedule: Q04DX003 (ip), vehicle: saline with Tween-80 98 % of control | dose: 50.0 mg/kg/injection, schedule: Q04DX003 (ip), vehicle: saline with Tween-80 101 % of control and 105 % of control | [3] 106 % of control

C=C1C[C@@]2(OC)OCC[C@H]3C(C)=CCC(C1=O)[C@]32C(=O)OC (some centres undefined)
inactive: [4] 105 % of control | [5] 105 % of control

O=[N+]([O-])c1cnc(Sc2ncccn2)c([N+](=O)[O-])c1
inactive: dose: 3.12 mg/kg/injection, schedule: Q01DX009 (ip), vehicle: saline 96 % of control | dose: 3.12 mg/kg/injection, schedule: Q01DX009 (ip), vehicle: suspension in saline 107 % of control | dose: 6.25 mg/kg/injection, schedule: Q01DX009 (ip), vehicle: saline 96 % of control | dose: 6.25 mg/kg/injection, schedule: Q01DX009 (ip), vehicle: suspension in saline 104 % of control | [6] 99 % of control | dose: 12.5 mg/kg/injection, schedule: Q01DX009 (ip), vehicle: suspension in saline 98 % of control and 108 % of control | dose: 25.0 mg/kg/injection, schedule: Q01DX009 (ip), vehicle: suspension in saline 105 % of control | dose: 50.0 mg/kg/injection, schedule: Q01DX009 (ip), vehicle: suspension in saline 99 % of control and 107 % of control

CSc1nc(N)c(NS(=O)(=O)c2cccc(N)c2)c(=O)[nH]1
inactive: [7] 100 % of control | [8] 99 % of control | [9] 99 % of control

COC(=O)NCCn1c([N+](=O)[O-])cnc1C
inactive: [10] 99 % of control | [11] 98 % of control | [12] 106 % of control

Oc1ccc2ccccc2c1N=Nc1ccc(F)cc1
inactive: [3] 100 % of control | dose: 200.0 mg/kg/injection, schedule: Q04DX003 (ip), vehicle: saline with Tween-80 100 % of control | dose: 400.0 mg/kg/injection, schedule: Q04DX003 (ip), vehicle: saline with Tween-80 104 % of control

CC[Si](CC)(CC)OC(C#N)c1ccc2c(c1)OCO2 (centres undefined)
inactive: [4] 104 % of control | [5] 104 % of control | [13] 100 % of control

CC1(c2ccc3ccccc3c2)C(C#N)(C#N)C1(C#N)C#N
inactive: [6] 100 % of control | dose: 25.0 mg/kg/injection, schedule: Q01DX009 (ip), vehicle: saline 102 % of control | dose: 50.0 mg/kg/injection, schedule: Q01DX009 (ip), vehicle: saline 89 % of control | dose: 100.0 mg/kg/injection, schedule: Q01DX009 (ip), vehicle: saline 103 % of control

CC(=O)Nc1ccc2c(c1)nc(-c1ccccn1)n2CCc1ccccn1
inactive: dose: 25.0 mg/kg/injection, schedule: Q01DX005 (ip), vehicle: Klucel (hydroxypropylcellulose) (HPC) 103 % of control | [14] 102 % of control | [15] 102 % of control | [16] 102 % of control

CCOC(=O)C(N=Nc1ccc(C)cc1Br)C(C)=O (centres undefined)
inactive: [4] 102 % of control | [5] 93 % of control | [13] 93 % of control

CCOc1ccc2nc3cc(N)ccc3c(N)c2c1
inactive: dose: 44.0 mg/kg/injection, schedule: Q04DX003 (ip), vehicle: saline 118 % of control | dose: 66.0 mg/kg/injection, schedule: Q04DX003 (ip), vehicle: saline 118 % of control | [17] 118 % of control | dose: 150.0 mg/kg/injection, schedule: Q04DX003 (ip), vehicle: saline 118 % of control

[B-][N+](C)(C)C
inactive: [4] 98 % of control | [5] 98 % of control

CCOC(=O)C(C(=O)OCC)=C(C)/C=C/C(Cl)(Cl)Cl
inactive: dose: 100.0 mg/kg/injection, schedule: Q04DX002 (ip), vehicle: saline with Tween-80 110 % of control | dose: 200.0 mg/kg/injection, schedule: Q04DX002 (ip), vehicle: saline with Tween-80 102 % of control | dose: 400.0 mg/kg/injection, schedule: Q04DX002 (ip), vehicle: saline with Tween-80 98 % of control

NC(=O)c1cc([N+](=O)[O-])cnc1Sc1ncn[nH]1
inactive: [1] 98 % of control | [2] 107 % of control

CC1NC(=O)N(C(C)(C)C)C1=O (centres undefined)
inactive: [4] 111 % of control | [18] 101 % of control | [5] 111 % of control | [19] 100 % of control | [13] 120 % of control | [20] 102 % of control and 107 % of control

NNc1nccnc1Cl
inactive: dose: 50.0 mg/kg/injection, schedule: Q01DX001 (ip), vehicle: saline with Tween-80 102 % of control | [10] 97 % of control | [11] 108 % of control

CC(O)c1nc2ncc(Br)cc2[nH]1 (centres undefined)
inactive: [10] 93 % of control | [11] 99 % of control | [12] 101 % of control

Cc1sc2ccccc2c(=O)c1CCl
inactive: [7] 111 % of control | [8] 104 % of control

O/N=C/C1CCCC[N-]1.[Co+3].[O-]/N=C/C1CCCC[N-]1.[O-]/N=C/C1CCCC[N-]1.[O-][Cl+3]([O-])([O-])O (centres undefined)
inactive: [7] 97 % of control | [8] 103 % of control | [9] 104 % of control

C/C(C=O)=C\c1ccc2c(c1)OCO2
inactive: [14] 104 % of control | [15] 97 % of control | [16] 106 % of control

NCCSC(C[N+](=O)[O-])c1ccc2c(c1)OCO2 (centres undefined)
inactive: [21] 119 % of control | dose: 25.0 mg/kg/injection, schedule: Q01DX009 (ip), vehicle: saline with Tween-80 124 % of control

CC(=O)NC1C([Se][As](C)C)OC(COC(C)=O)C(OC(C)=O)C1OC(C)=O (centres undefined)
inactive: dose: 6.25 mg/kg/injection, schedule: Q01DX009 (ip), vehicle: saline with Tween-80 122 % of control | [21] 116 % of control

Cc1nc(C)c(C(=O)O)cc1C(=O)O
inactive: [17] 100 % of control | dose: 200.0 mg/kg/injection, schedule: Q04DX003 (ip), vehicle: saline 95 % of control | dose: 400.0 mg/kg/injection, schedule: Q04DX003 (ip), vehicle: saline 86 % of control

CC1(O)CCC(O)CC1CC(=O)O (centres undefined)
inactive: [18] 107 % of control | [19] 100 % of control | [20] 105 % of control

Cc1ccc(NC(=O)N(C)C)cc1NC(=O)N(C)C
inactive: [7] 100 % of control | [8] 100 % of control | [9] 101 % of control

OC(C[n+]1ccccc1)c1ccc2c(c1)OCO2 (centres undefined)
inactive: [4] 106 % of control | [5] 97 % of control
